Results published in ChEMBL document CHEMBL1137652, “Prevalence and expression of the plasmid-mediated quinolone resistance determinant qnrA1” (2007).
≈ marks a conversion by molar mass, not a printed value.

What was measured:
Escherichia coli [1] = assay: Antimicrobial activity against azide-resistant aac(6')-Ib-cr deficient Escherichia coli J53 qnrA1 bearing pHS4 transconjugant from Enterobacter cloacae 91 by agar dilution method; assay type: functional
Escherichia coli [2] = assay: Antimicrobial activity against azide-resistant aac(6')-Ib-cr expressing Escherichia coli J53 qnrA1 bearing pHS3 transconjugant from Citrobacter freundii 64 by agar dilution method; assay type: functional
Escherichia coli [3] = assay: Antimicrobial activity against azide-resistant Escherichia coli J53 by agar dilution method; assay type: functional
Escherichia coli [4] = assay: Antimicrobial activity against azide-resistant aac(6')-Ib-cr deficient Escherichia coli J53 qnrA1 bearing pHS5 transconjugant from Enterobacter cloacae 641 by agar dilution method; assay type: functional
Escherichia coli [5] = assay: Antimicrobial activity against azide-resistant aac(6')-Ib-cr expressing Escherichia coli J53 qnrA1 bearing pHS6 transconjugant from Escherichia coli 650 by agar dilution method; assay type: functional
Escherichia coli [6] = assay: Antimicrobial activity Escherichia coli 633 expressing plasmid-mediated quinolone resistance qnr A gene by agar dilution method; assay type: functional
Citrobacter freundii = assay: Antimicrobial activity Citrobacter freundii 64 expressing plasmid-mediated quinolone resistance qnr A gene by agar dilution method; assay type: functional
Enterobacter cloacae [7] = assay: Antimicrobial activity Enterobacter cloacae 91 expressing plasmid-mediated quinolone resistance qnr A gene by agar dilution method; assay type: functional
Enterobacter cloacae [8] = assay: Antimicrobial activity Enterobacter cloacae 641 expressing plasmid-mediated quinolone resistance qnr A gene by agar dilution method; assay type: functional
Enterobacter cloacae [9] = assay: Antimicrobial activity Enterobacter cloacae 113 expressing plasmid-mediated quinolone resistance qnr A gene by agar dilution method; assay type: functional
Enterobacter cloacae [10] = assay: Antimicrobial activity Enterobacter cloacae 63 expressing plasmid-mediated quinolone resistance qnr A gene by agar dilution method; assay type: functional
Escherichia coli [11] = assay: microbe, parasite or virus in culture; settings: 650
Description: (§1) Antimicrobial activity Escherichia coli 650 expressing plasmid-mediated quinolone resistance qnr A gene by agar dilution method

Escherichia coli [12] = assay: Antibacterial activity against pKK232-8-HS3-transformed Escherichia coli HB101 transformants harboring promoter sequence of qnrA1 gene cloned with promoterless cat gene by agar dilution method; assay type: functional
Escherichia coli [13] = assay: Antibacterial activity against pKK232-8-HS6-transformed Escherichia coli HB101 transformants harboring promoter sequence of qnrA1 gene cloned with promoterless cat gene by agar dilution method; assay type: functional
Escherichia coli [14] = assay: Antibacterial activity against pKK232-8-HS5-transformed Escherichia coli HB101 transformants harboring promoter sequence of qnrA1 gene cloned with promoterless cat gene by agar dilution method; assay type: functional
Escherichia coli [15] = assay: Antibacterial activity against pKK232-8-HS4-transformed Escherichia coli HB101 transformants harboring promoter sequence of qnrA1 gene cloned with promoterless cat gene by agar dilution method; assay type: functional
Escherichia coli [16] = assay: Antibacterial activity against Escherichia coli HB101 by agar dilution method; assay type: functional
Escherichia coli [17] = assay: Ratio of MIC for pKK232-8-HS6-transformed Escherichia coli HB101 transformants to MIC for pKK232-8-HS5-transformed Escherichia coli HB101 transformants; assay type: functional
Escherichia coli [18] = assay: Ratio of MIC for pKK232-8-HS6-transformed Escherichia coli HB101 transformants to MIC for pKK232-8-HS3-transformed Escherichia coli HB101 transformants; assay type: functional
Escherichia coli [19] = assay: Antibacterial activity against pKK232-8-tranformed Escherichia coli HB101 transformants harboring promoterless cat gene by agar dilution method; assay type: functional
Escherichia coli [20] = assay: Ratio of MIC for pKK232-8-HS6-transformed Escherichia coli HB101 transformants to MIC for pKK232-8-HS4-transformed Escherichia coli HB101 transformants; assay type: functional
Escherichia coli [21] = assay: Antibacterial activity against Escherichia coli isolate 1B harboring qnrA1 and blaVEB1 genes by agar dilution method
Escherichia coli [22] = settings: 650
Description: as §1

| Compound | MIC (Escherichia coli [1]) [µg/mL] | MIC (Escherichia coli [2]) [µg/mL] | MIC (Escherichia coli [3]) [µg/mL] | MIC (Escherichia coli [4]) [µg/mL] | MIC (Escherichia coli [5]) [µg/mL] | MIC (Escherichia coli [6]) [µg/mL] | MIC (Citrobacter freundii) [µg/mL] | MIC (Enterobacter cloacae [7]) [µg/mL] | MIC (Enterobacter cloacae [8]) [µg/mL] | MIC (Enterobacter cloacae [9]) [µg/mL] | MIC (Enterobacter cloacae [10]) [µg/mL] | also measured |
| --- | --- | --- | --- | --- | --- | --- | --- | --- | --- | --- | --- | --- |
| NCC[C@H](O)C(=O)N[C@@H]1C[C@H](N)[C@@H](O[C@H]2O[C@H](CN)[C@@H](O)[C@H](O)[C@H]2O)[C@H](O)[C@H]1O[C@H]1O[C@H](CO)[C@@H](O)[C@H](N)[C@H]1O [AMIKACIN] | 4 (≈ 6.83 µM) | 2 (≈ 3.42 µM) | 0.5 (≈ 0.854 µM) | 4 (≈ 6.83 µM) | 2 (≈ 3.42 µM) |  |  |  |  |  |  |  |
| CC1(C)S[C@@H]2[C@H](NC(=O)[C@H](N)c3ccccc3)C(=O)N2[C@H]1C(=O)O [AMPICILLIN] | ≥ 512 | 512 (≈ 1470 µM) | 8 (≈ 22.9 µM) | ≥ 512 | 512 (≈ 1470 µM) |  |  |  |  |  |  |  |
| CO/N=C(\C(=O)N[C@@H]1C(=O)N2C(C(=O)O)=C(COC(C)=O)CS[C@H]12)c1csc(N)n1 [CEFOTAXIME] | 8 (≈ 17.6 µM) | ≤ 0.06 | ≤ 0.06 | 8 (≈ 17.6 µM) | 0.125 (≈ 0.274 µM) | ≥ 128 | 2 (≈ 4.39 µM) | 32 (≈ 70.3 µM) | 32 (≈ 70.3 µM) | 64 (≈ 141 µM) | 64 (≈ 141 µM) | MIC (Escherichia coli [11]): 1 µg/mL (≈ 2.2 µM) |
| CC(C)(O/N=C(\C(=O)N[C@@H]1C(=O)N2C(C(=O)[O-])=C(C[n+]3ccccc3)CS[C@H]12)c1csc(N)n1)C(=O)O [CEFTAZIDIME] | 8 (≈ 14.6 µM) | 0.125 (≈ 0.229 µM) | 0.125 (≈ 0.229 µM) | 32 (≈ 58.5 µM) | 0.125 (≈ 0.229 µM) | 4 (≈ 7.32 µM) | 4 (≈ 7.32 µM) | 128 (≈ 234 µM) | 64 (≈ 117 µM) | 128 (≈ 234 µM) | 32 (≈ 58.5 µM) | MIC (Escherichia coli [11]): 4 µg/mL (≈ 7.32 µM) |
| O=C(N[C@H](CO)[C@H](O)c1ccc([N+](=O)[O-])cc1)C(Cl)Cl [CHLORAMPHENICOL] |  |  |  |  |  |  |  |  |  |  |  | MIC (Escherichia coli [12]): 8 µg/mL (≈ 24.8 µM); MIC (Escherichia coli [13]): 96 µg/mL (≈ 297 µM); MIC (Escherichia coli [14]): 8 µg/mL (≈ 24.8 µM); MIC (Escherichia coli [15]): 8 µg/mL (≈ 24.8 µM); MIC (Escherichia coli [16]): 3 µg/mL (≈ 9.28 µM); Ratio (Escherichia coli [17]): 12; Ratio (Escherichia coli [18]): 12; MIC (Escherichia coli [19]): 3 µg/mL (≈ 9.28 µM); Ratio (Escherichia coli [20]): 12 |
| O=C(O)c1cn(C2CC2)c2cc(N3CCNCC3)c(F)cc2c1=O [CIPROFLOXACIN] |  |  |  |  |  |  |  |  |  |  |  | MIC (Escherichia coli [21]): > 32 µg/mL |
| NC[C@H]1O[C@H](O[C@H]2[C@H](O)[C@@H](O[C@H]3O[C@H](CO)[C@@H](O)[C@H](N)[C@H]3O)[C@H](N)C[C@@H]2N)[C@H](O)[C@@H](O)[C@@H]1O [KANAMYCIN] | 64 (≈ 132 µM) | 8 (≈ 16.5 µM) | 0.5 (≈ 1.03 µM) | 64 (≈ 132 µM) | 16 (≈ 33 µM) |  |  |  |  |  |  |  |
| C[C@H]1COc2c(N3CCN(C)CC3)c(F)cc3c(=O)c(C(=O)O)cn1c23.C[C@H]1COc2c(N3CCN(C)CC3)c(F)cc3c(=O)c(C(=O)O)cn1c23.O [LEVOFLOXACIN] | 0.19 | 0.19 |  | 0.19 | 0.38 |  |  |  |  |  |  |  |
| CN[C@@H]1[C@H](O[C@H]2[C@H](O[C@H]3[C@H](O)[C@@H](O)[C@H](N=C(N)N)[C@@H](O)[C@@H]3N=C(N)N)O[C@@H](C)[C@]2(O)C=O)O[C@@H](CO)[C@H](O)[C@H]1O [STREPTOMYCIN] | 8 (≈ 13.8 µM) | 2 (≈ 3.44 µM) | 1 (≈ 1.72 µM) | 8 (≈ 13.8 µM) | 1 (≈ 1.72 µM) |  |  |  |  |  |  |  |
| Cc1cc(NS(=O)(=O)c2ccc(N)cc2)no1 [SULFAMETHOXAZOLE] | ≥ 512 | ≥ 512 | 8 (≈ 31.6 µM) | ≥ 512 | ≥ 512 | ≥ 512 | ≥ 512 | ≥ 512 | ≥ 512 | ≥ 512 | ≥ 512 | MIC (Escherichia coli [11]): ≥ 512 µg/mL |
| NC[C@H]1O[C@H](O[C@H]2[C@H](O)[C@@H](O[C@H]3O[C@H](CO)[C@@H](O)[C@H](N)[C@H]3O)[C@H](N)C[C@@H]2N)[C@H](N)C[C@@H]1O [TOBRAMYCIN] | 8 (≈ 17.1 µM) | 8 (≈ 17.1 µM) | 0.25 (≈ 0.535 µM) | 8 (≈ 17.1 µM) | 8 (≈ 17.1 µM) |  |  |  |  |  |  |  |
| COc1cc(Cc2cnc(N)nc2N)cc(OC)c1OC [TRIMETHOPRIM] | ≥ 512 | ≤ 0.06 | ≤ 0.06 | ≥ 512 | 0.25 (≈ 0.861 µM) |  |  |  |  |  |  |  |
| GENTAMICIN | 2 | 8 | 0.25 | 2 | 0.25 | > 128 | 32 | 8 | 4 | 8 | 4 | MIC (Escherichia coli [22]): > 128 µg/mL |
